According to US10941177B2, “2′-substituted carba-nucleoside analogs for antiviral treatment” (Gilead Sciences, Inc., priority 2012, dated 2021):
Read-outs that look alike come from different tables or passages of the source.

Experiments:
[1] = tested on: Influenza B virus B/Lee/40; assay: Normal Human Bronchial/Tracheal Epithelial Cell Influenza Infection Assay (EC50), Influenza B Lee/40; format: cell-based; conditions: Normal Human Bronchial/Tracheal Epithelial Cells, 10 MOI, five day incubation, neuramidase substrate fluorescence, read-out: Infl B Lee/40 EC50
Protocol: Normal Human Bronchial/Tracheal Epithelial Cell Influenza Infection Assay (EC50)
Normal Human Bronchial/Tracheal Epithelial Cells (Lonza, Basel Switzerland) are seeded to 384-well plates at a density of 4000 cells per well in BEGM medium supplemented with growth factors (Lonza, Basel Switzerland). Medium is removed next day, and cells are washed three times with 100 μL of RPMI+1% BSA (RPMI-BSA). 30 μL of RPMI-BSA is added to cells thereafter. Compounds are 3-fold serially diluted in DMSO, and 0.4 μL of compound dilutions are stamped to plates. Influenza A virus HK/8/68 (Advanced Biotechnology Inc, Columbia, Md., 13.5 MOI), PC/1/73 (ATCC Manassas, Va., 0.3 MOI) and Influenza B virus B/Lee/40 ((ATCC Manassas, Va., 10 MOI) are added to cells in 10 μL of RPMI-BSA medium supplemented with 8 ug/mL trypsin (Worthington, Lakewood, N.J.). After a five day incubation, 40 μL of buffer containing 66 mM Mes pH 6.5, 8 mM CaCl2, 0.5% NP-40 and 100 μM neuramidase substrate (2′-(4-Methylumbelliferyl)-α-D-N-acetylneuraminic acid sodium salt hydrate, Sigma Aldrich, St. Luis, Mo.) is added to cells. Fluorescence of the product of hydrolysis is read using excitation at 360 nm and emission at 450 nm after a 1 hour incubation at 37° C. EC50 values are calculated by non-linear regression of multiple data sets.

[2] = tested on: Influenza A virus PC/1/73; assay: microbe, parasite or virus in culture; format: cell-based; conditions: read-out: Infl A PC/1/73 EC50
Influenza RNA polymerase = Influenza RNA polymerase (Influenza A virus, UniProt P03431); assay: Influenza RNA Polymerase Inhibition (IC50) Assay; format: biochemical; conditions: virus lysate of Influenza A/PR/8/34 (H1N1), 30° C. for 90 minutes, α-33P labeled NTP incorporation
Protocol: Influenza RNA Polymerase Inhibition (IC50) Assay
Influenza A/PR/8/34 (H1N1) purified virus was obtained from Advanced Biotechnologies Inc. (Columbia, Md.) as suspension in PBS buffer. Virions were disrupted by exposure to an equal volume of 2% Triton X-100 for 30 minutes at room temperature in a buffer containing 100 mM Tris-HCl, pH 8, 200 mM KCl, 3 mM dithiothreitol [DTT], 10% glycerol, 10 mM MgCl2, 2 U/mL RNasin Ribonuclease Inhibitor, and 2 mg/mL Lysolechithin type V (Sigma, Saint Louis, Mo.). The virus lysate was stored at −80° C. in aliquots.
The concentrations refer to final concentrations unless mentioned otherwise. Nucleotide analog inhibitors were serially diluted 3 fold in water and added to reaction mix containing 10% virus lysate (v/v), 100 mM Tris-HCl (pH 8.0), 100 mM KCl, 1 mM DTT, 10% glycerol, 0.25% Triton-101 (reduced), 5 mM MgCl2, 0.4 U/mL RNasin, and 200 μM ApG dinucleotide primer (TriLink, San Diego Calif.). […]
Reactions were incubated at 30° C. for 90 minutes then spotted onto DE81 filter paper. Filters were air dried, washed 0.125 M Na2HPO4 (3×), water (1×), and EtOH (1×), and air dried before exposed to Typhoon phosphor imager and radioactivity was quantified on a Typhoon Trio (GE Healthcare, Piscataway N.J.). […]

| Structure (SMILES) | EC50 [1] | EC50 [2] | EC50 ([1]; Influenza B virus, Epithelial cell, 120 h) | EC50 ([2]; Influenza A virus, Epithelial cell, 120 h) | IC50 (Influenza RNA polymerase) |
| --- | --- | --- | --- | --- | --- |
| Nc1ncnn2c([C@H]3O[C@@H](CO)[C@H](O)[C@H]3F)cnc12 [Compound 10, (2S,3S,4R,5R)-5-(4-aminoimidazo[1,2-f][1,2,4]triazin-7-yl)-4-fluoro-2-(hydroxymethyl)tetrahydrofuran-3-ol] | 0.9 µM | 0.9 µM |  |  |  |
| Nc1nn2c([C@@H]3O[C@H](CO)[C@@H](O)[C@@H]3F)cnc2c(=O)[nH]1 [Compound 7] | 37 µM | 27 µM |  |  |  |
| COc1nc(N)nn2c([C@@H]3O[C@H](CO)[C@@H](O)[C@H]3F)cnc12 [Compound 19, (2R,3R,4R,5S)-5-(2-amino-4-methoxyimidazo[1,2-f][1,2,4]triazin-7-yl)-4-fluoro-2-(hydroxymethyl)tetrahydrofuran-3-ol] |  |  | 36 µM | 30 µM |  |
| Nc1nc(N)c2ncc(C3OC(CO)C(O)C3F)n2n1 [Compound 6, (2S,3S,4R,5R)-5-(2,4-diaminoimidazo[1,2-f][1,2,4]triazin-7-yl)-4-fluoro-2-(hydroxymethyl)tetrahydrofuran-3-ol] | 51 µM | 21 µM |  |  |  |
| Nc1nc(F)nn2c([C@@H]3O[C@H](CO)[C@@H](O)[C@H]3F)cnc12 [Compound 12, (2R,3R,4R,5S)-5-(4-amino-2-fluoroimidazo[1,2-f][1,2,4]triazin-7-yl)-4-fluoro-2-(hydroxymethyl)tetrahydrofuran-3-ol] | > 100 µM | > 100 µM |  |  |  |
| CCOc1nc(N)nn2c([C@@H]3O[C@H](CO)[C@@H](O)[C@H]3F)cnc12 [Compound 18, (2R,3R,4R,5S)-5-(2-amino-4-ethoxyimidazo[1,2-f][1,2,4]triazine-7-yl)-4-fluoro-2-(hydroxymethyl)tetrahydrofuran-3-ol] | > 200 µM | > 200 µM |  |  |  |
| Nc1nn2c([C@@H]3O[C@H](COP(=O)(O)OP(=O)(O)OP(=O)(O)O)[C@@H](O)[C@H]3F)cnc2c(=O)[nH]1 [Compound 8, ((2R, 3R, 4R, 5S)-5-(2-amino-4-oxo-3,4-dihydroimidazo[1,2-J][1,2,4]triazin-7-yl)-4-fluoro-3-hydroxy-3-hydroxytetrahydrofuran-2-yl)methyl tetrahydrogen triphosphate] |  |  |  |  | 2.8 µM |
